For this experiment, the target named is human PDE10A2 (Homo sapiens (Human), UniProt Q9Y233). Briefly: PDE10 fluorescence polarization (IMAP FP) inhibition assay. The class given is biochemical. The following applies: human PDE10A2 from transfected AD293 cell lysate; FAM-labeled cAMP 50 nM; room temperature; read-out: PDE10A Ki. The protocol:
The activity of the compounds in accordance with the present invention as PDE10 inhibitors may be readily determined without undue experimentation using a fluorescence polarization (FP) methodology that is well known in the art (Huang, W., et al., J. Biomol Screen, 2002, 7: 215).
In a typical experiment the PDE10 inhibitory activity of the compounds of the present invention was determined in accordance with the following experimental method. PDE10A2 was amplified from human fetal brain cDNA (Clontech, Mountain View, Calif.) using a forward primer corresponding to nucleotides 56-77 of human PDE10A2 (Accession No. AF127480, Genbank Identifier 4894716), containing a Kozak consensus sequence, and a reverse primer corresponding to nucleotides 2406-2413 of human PDE10A2 (Accession No. AF127480, Genbank Identifier 4894716). Amplification with Easy-A polymerase (Stratagene, La Jolla, Calif.) was 95° C. for 2 minutes followed by thirty three cycles of 95° C. for 40 seconds, 55° C. for 30 seconds, and 72° C. for 2 minutes 48 seconds. Final extension was 72° C. for 7 minutes. The PCR product was TA cloned into pcDNA3.2-TOPO (Invitrogen, Carlsbad, Calif.) according to standard protocol. AD293 cells with 70-80% confluency were transiently transfected with human PDE10A2/pcDNA3.2-TOPO using Lipofectamine 2000 according to manufacturer specifications (Invitrogen, Carlsbad, Calif.). Cells were harvested 48 hours post-transfection and lysed by sonication (setting 3, 10×5 sec pulses) in a buffer containing 20 mM HEPES, 1 mM EDTA and protease inhibitor cocktail (Roche). Lysate was collected by centrifugation at 75,000×g for 20 minutes. Supernatant containing the cytoplasmic fraction was used for evaluation of PDE10A2 activity. The fluorescence polarization assay for cyclic nucleotide phosphodiesterases was performed using an IMAP® FP kit supplied by Molecular Devices, Sunnyvale, Calif. (product #R8139). IMAP® technology has been applied previously to phosphodiesterase assays (Huang, W., et al., J. Biomol Screen, 2002, 7: 215). Assays were performed at room temperature in 384-well microtiter plates with an incubation volume of 20.2 μL. Solutions of test compounds were prepared in DMSO and serially diluted with DMSO to yield 8 μL of each of 10 solutions differing by 3-fold in concentration, at 32 serial dilutions per plate. 100% inhibition is determined using a known PDE10 inhibitor, which can be any compound that is present at 5,000 times its Ki value in the assay described as follows, such as papaverine (see Siuciak, et al. Neuropharmacology (2006) 51:386-396; Becker, et al. Behav Brain Res (2008) 186(2):155-60; Threlfell, et al., J Pharmacol Exp Ther (2009) 328(3):785-795), 2-[4-[pyridin-4-yl-1-(2,2,2-trifluoroethyl)-1H-pyrazol-3-yl]phenoxymethyl]quinoline succinic acid or 2-[4-(1-methyl-4-pyridin-4-yl-1H-pyrazol-3-yl)-phenoxymethyl]quinoline succinic acid (see Schmidt, et al. J Pharmacol Exp Ther (2008) 325:681-690; Threlfell, et al., J Pharmacol Exp Ther (2009) 328(3): 785-795). 0% of inhibition is determined by using DMSO (1% final concentrations). A Labcyte Echo 555 (Labcyte, Sunnyvale, Calif.) is used to dispense 200 nL from each well of the titration plate to the 384 well assay plate. A solution of enzyme (1/7000 dilution from aliquots; sufficient to produce 20% substrate conversion) and a separate solution of FAM-labeled cAMP PDE from Molecular Devices (product #R7506), at a final concentration of 50 nM are made in the assay buffer (10 mM Tris HCl, pH 7.2, 10 mM MgCl2, 0.05% NaN3 0.01% Tween-20, and 1 mM DTT). The enzyme is added to the assay plates by the addition of 10 μL of enzyme solution to each well, shaken to mix and incubated at room temperature for 60 minutes. The substrate is then added to the assay plates by the addition of 10 uL of substrate solution to each well, shaken to mix, and incubated at room temperature for 60 minutes. […]
On the technique in general: In fluorescence polarisation assays a small probe gives low polarisation when free and higher when bound to something large.
Sequence of human PDE10A2 (Q9Y233 267-1055): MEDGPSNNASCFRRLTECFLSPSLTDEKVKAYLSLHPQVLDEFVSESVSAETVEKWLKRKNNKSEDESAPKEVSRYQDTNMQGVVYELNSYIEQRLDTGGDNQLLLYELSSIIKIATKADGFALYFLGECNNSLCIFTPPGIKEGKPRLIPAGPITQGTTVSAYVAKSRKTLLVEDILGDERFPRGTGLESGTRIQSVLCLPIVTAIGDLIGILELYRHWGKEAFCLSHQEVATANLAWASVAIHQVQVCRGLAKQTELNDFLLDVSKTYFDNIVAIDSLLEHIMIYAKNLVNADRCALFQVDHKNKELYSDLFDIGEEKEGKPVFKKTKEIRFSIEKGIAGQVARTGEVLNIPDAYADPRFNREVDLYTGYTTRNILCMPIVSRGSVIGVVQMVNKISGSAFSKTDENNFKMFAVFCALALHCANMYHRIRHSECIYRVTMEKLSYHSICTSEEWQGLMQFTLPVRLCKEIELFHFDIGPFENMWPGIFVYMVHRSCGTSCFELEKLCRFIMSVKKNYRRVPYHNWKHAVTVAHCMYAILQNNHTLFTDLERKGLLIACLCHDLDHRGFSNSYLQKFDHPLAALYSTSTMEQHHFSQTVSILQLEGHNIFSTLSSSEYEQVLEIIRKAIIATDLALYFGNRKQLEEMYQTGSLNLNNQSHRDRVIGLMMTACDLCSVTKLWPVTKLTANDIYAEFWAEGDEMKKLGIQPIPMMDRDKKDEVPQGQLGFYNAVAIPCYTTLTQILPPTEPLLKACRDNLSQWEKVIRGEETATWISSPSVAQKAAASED
By Ki is commonly meant a dissociation constant, usually derived from enzyme kinetics or from competition with a known ligand. Consider `COc1ccc([C@H]2C[C@@H]2COc2nc(C)ncc2C2=CCC(O)CC2)nc1` (stereo partly drawn) [1-31, 4-(4-{[(1S,2S)-2-(5-methoxypyridin-2-yl)cyclopropyl]methoxy}-2-methylpyrimidin-5-yl)cyclohex-3-en-1-ol], for which the Ki is 0.15 nM.

Consider `COc1ccc([C@H]2C[C@@H]2COc2nc(C)c(C)nc2-c2cncc(OC)c2)nc1` [1-36, 2-(5-methoxypyridin-3-yl)-3-{[(1S,2S)-2-(5-methoxypyridin-2-yl)cyclopropyl]methoxy}-5,6-dimethylpyrazine], for which the Ki was 0.22 nM.

`COc1ccc([C@H]2C[C@@H]2COc2ncc(C)cc2-c2cnn3c2CCC3)nc1` [1-39, 3-(2-{[(1S,2S)-2-(5-methoxypyridin-2-yl)cyclopropyl]methoxy}-5-methylpyridin-3-yl)-5,6-dihydro-4H-pyrrolo[1,2-b]pyrazole]: the Ki came to 0.34 nM.

With `Cn1cc(-c2cc3ccncc3nc2OC[C@H]2C[C@@H]2c2ccc3ncccc3n2)cn1` [1-42, 2-[(1S,2S)-2-({[3-(1-methyl-1H-pyrazol-4-yl)-1,7-naphthyridin-2-yl]oxy}methyl)cyclo-propyl]-1,5-naphthyridine], the Ki was determined as 0.04 nM.

Regarding `Cc1ncc(-c2c(C)nn(C)c2C)c(OC[C@H]2C[C@@H]2c2ccc3ccccc3n2)n1` [1-46, 2-[(1S,2S)-2-({[2-methyl-5-(1,3,5-trimethyl-1H-pyrazol-4-yl)pyrimidin-4-yl]oxy}methyl)cyclopropyl]quinoline], the Ki amounted to 0.002 nM.

As for `Cc1ncc(-c2cnn(C)c2)c(OC[C@H]2C[C@@H]2c2ccn(C)n2)n1` [1-54, 2-methyl-5-(1-methyl-1H-pyrazol-4-yl)-4-{[(1S,2S)-2-(1-methyl-1H-pyrazol-3-yl)cyclopropyl]methoxy}-pyrimidine], the Ki was 3.2 nM.

`COc1ccc([C@H]2C[C@@H]2COc2nc(C)ncc2-c2nnc(C3CC3)s2)nc1` [1-55, 5-(5-cyclopropyl-1,3,4-thiadiazol-2-yl)-4-{[(1S,2S)-2-(5-methoxypyridin-2-yl)cyclopropyl]methoxy}-2-methylpyrimidine]: the Ki came to 4.2 nM.

For `COc1ccc([C@H]2C[C@@H]2COc2nc(C)ncc2-c2csc(C)n2)nc1` [1-57, 4-{[(1S,2S)-2-(5-methoxypyridin-2-yl)cyclopropyl]methoxy}-2-methyl-5-(2-methyl-1,3-thiazol-4-yl)pyrimidine], the Ki was 0.78 nM.

For `COc1ccc([C@H]2C[C@@H]2COc2nc(C)ncc2-c2ccc(C)nc2)nc1` [1-73, 4-{[(1S,2S)-2-(5-methoxypyridin-2-yl)cyclopropyl]methoxy}-2-methyl-5-(6-methylpyridin-3-yl)pyrimidine], the inhibition constant (Ki) stood at 0.8 nM.

On to `COc1ccc([C@H]2C[C@@H]2COc2nc3cccnc3cc2-c2cnn(CCO)c2)nc1` [LL3, 2-[4-(2-{[(1S,2S)-2-(5-methoxypyridin-2-yl)cyclopropyl]methoxy}-1,5-naphthyridin-3-yl)-1H-pyrazol-1-yl]ethanol], for which the Ki was 0.23 nM.

`COc1ccc([C@H]2C[C@@H]2COc2nc(C)ncc2-c2cnn(C)c2)nc1` [MM4, 4-{[(1S,2S)-2-(5-methoxypyridin-2-yl)cyclopropyl]methoxy}-2-methyl-5-(1-methyl-1H-pyrazol-4-yl)pyrimidine]: the Ki turned out to be 0.25 nM.

On to `COc1ccc([C@H]2C[C@@H]2COc2nc3cccnc3cc2C2CCCN(C(C)=O)C2)nc1` (stereo partly drawn) [RR4, 1-[3-(2-{[(1S,2S)-2-(5-methoxypyridin-2-yl)cyclopropyl]methoxy}-1,5-naphthyridin-3-yl)piperidin-1-yl]ethanone], for which the Ki was 2.5 nM.

Turning to `COc1ccc([C@H]2C[C@@H]2COc2nc(C)ncc2CN2CCC(F)(F)C2)nc1` [SS1, 5-[(3,3-difluoropyrrolidin-1-yl)methyl]-4-{[(1S,2S)-2-(5-methoxypyridin-2-yl)cyclopropyl]methoxy}-2-methylpyrimidine], the Ki amounted to 60.8 nM.

With `COc1ccc([C@H]2C[C@@H]2COc2nc(C)ncc2/C=C/c2cccnc2)nc1` [TT1, 4-{[(1S,2S)-2-(5-methoxypyridin-2-yl)cyclopropyl]methoxy}-2-methyl-5-[(E)-2-(pyridin-3-yl)ethenyl]pyrimidine], the Ki was found to be 0.6 nM.

For the origin of these results see patent publication US8975261B2, “Aryloxmethyl cyclopropane derivatives as PDE10 inhibitors” (Merck Sharp & Dohme Corp., priority 2011, dated 2015).
